One molecule from patent US12053533B2, “Fluorescent probe for cyclooxygenase-2” (The Board of Trustees of the University of Illinois, priority 2020, dated 2024) can be followed below.

“Also recorded” adds a separate entry of the source.

In test [1] the target is T1, COX-1 isolated from bovine vesicles (Bos taurus, UniProt O62664).
T1 construct: COX-1 isolated from bovine vesicles; from tissue; host or cells: bovine vesicles
T1 sequence (O62664 25-600): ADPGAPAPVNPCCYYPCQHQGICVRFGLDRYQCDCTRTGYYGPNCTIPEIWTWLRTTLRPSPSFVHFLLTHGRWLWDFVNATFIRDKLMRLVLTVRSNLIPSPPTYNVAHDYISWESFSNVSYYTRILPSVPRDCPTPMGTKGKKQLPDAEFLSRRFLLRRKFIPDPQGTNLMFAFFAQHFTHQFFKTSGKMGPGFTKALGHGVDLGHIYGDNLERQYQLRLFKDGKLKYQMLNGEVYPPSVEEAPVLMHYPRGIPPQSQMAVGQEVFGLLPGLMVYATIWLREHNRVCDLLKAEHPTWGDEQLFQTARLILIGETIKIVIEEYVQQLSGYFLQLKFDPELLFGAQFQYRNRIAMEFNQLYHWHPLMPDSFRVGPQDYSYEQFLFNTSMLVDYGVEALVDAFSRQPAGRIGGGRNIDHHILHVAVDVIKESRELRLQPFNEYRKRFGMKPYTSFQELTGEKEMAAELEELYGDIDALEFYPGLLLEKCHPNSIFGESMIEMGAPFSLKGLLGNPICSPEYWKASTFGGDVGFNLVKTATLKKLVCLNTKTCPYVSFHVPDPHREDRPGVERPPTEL
In words: Isoform selectivity: CoxFluor incubated with COX-1. It counts as biochemical. The settings on record: even in the presence of 10-fold excess enzyme activity. How it is done:
Enzyme Selectivity. Enzyme activity was defined as the amount substrate (μmol) consumed during one minute by one milligram of enzyme in 100 mM Tris-HCl at pH 8.0 under saturating conditions. Enzyme concentrations were measured using the BCA assay (Thermo Fisher Scientific) according to the published protocol with bovine serum albumin for the standard curve. […] The oxygen electrode was calibrated using 1% sodium sulfite for 0% oxygen and atmosphere equilibrated 100 mM Tris-HCl at pH 8.0 for 100% oxygen. The reaction was monitored at 37° C. in a glass chamber with a total reaction volume of 1 mL. […] When measured, all enzyme activities were confirmed to be under saturating conditions and within the first 20% of the reaction. The selectivity of CoxFluor (10 μM) was monitored after incubation with either 0.101 U COX-2 or 1.01 U of the other enzymes, unless noted otherwise above, in 100 mM Tris-HCl buffer at pH 8.0 using the plate reader with excitation at 540 nm and emission at 590 nm. Total reaction volume was maintained at 95 μL with a final DMSO concentration of 1.26% (v/v).

A short description of test [2]: Analyte selectivity (reactive species). As to conditions: CoxFluor 10 μM, analytes up to 500 μM (50 equiv), 4 h. How it is done: Analyte Selectivity. Response of CoxFluor (10 μM) to a variety of reactive oxygen, nitrogen, carbonyl, metals, and sulfur species (1, 3, 5, or 50 equiv) were monitored using the plate reader assay. Total volume of the reaction mixture was maintained at 190 μL in 100 mM Tris-HCl buffer (pH 8.0) with a final DMSO concentration of 1.26% (v/v). Assays for CoxFluor or resorufin were initiated by the addition of the analytes and the reactions were incubated at room temperature for up to 4 h. Measurements were recorded at a range of time points, and the relative turn-on was determined relative to a buffer control containing 10 μM CoxFluor or resorufin. Superoxide anion was added as a solution of potassium superoxide in DMSO. Nitroxyl was generated in situ from a solution of Angeli's salt in degassed 10 mM potassium hydroxide solution. Angeli's salt was prepared according to previously reported literature (Methods Enzymol. 1999, 301, 279). NO was generated in situ from a solution of MAHMA-NONOate in degassed 10 mM potassium hydroxide. Peroxynitrite was prepared according to previously reported literature (Anal. Biochem. 2006, 354, 165). All metals were prepared from their chloride salt. Formaldehyde solutions were prepared by depolymerizing saturated aqueous solutions at 100° C. before use. […]

`CCCCC/C=C\C/C=C\C/C=C\C/C=C\CCCC(=O)N1c2ccc(O)cc2Oc2cc(O)ccc21` [CoxFluor]: in test [1], the “fluorescent enhancement with COX-1” value was “not observed; also recorded: No fluorescent enhancement was observed”. Also, the “activation by reactive oxygen/nitrogen species and other oxidants and reductants” value in test [2] was “no undesirable activation”.
